Key:
[1] = target: human activated kallikrein enzyme (Homo sapiens, UniProt P03952); test: Plasma kallikrein inhibition, fluorogenic PFR-AMC substrate, 500 pM activated kallikrein format; format: biochemical; conditions: 500 pM activated kallikrein, 300 uM PFR-AMC, 30 min preincubation, 10 min reaction; read-out: Primary Dose Response Assay: Average EC50
In short: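 Fluorogenic readout (ex 380 / em 460 nm) after 10 min room-temperature reaction with 300 uM Pro-Phe-Arg-AMC substrate, following 30 min preincubation of inhibitors with 500 pM enzyme. Buffer: Tris pH 7.5, EDTA, NaCl, PEG-400, Triton X-100. Values given as EC50 ranges.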

plasma kallikrein = target: T1, plasma kallikrein (Homo sapiens, UniProt P03952); test: Neat human plasma assay, FXIIa contact pathway-activated, PFR-AMC substrate; format: biochemical; conditions: citrated human plasma 78% final, 10 nM human FXIIa, 100 μM PFR-AMC; read-out: Human Plasma Assay: IC90
T1 construct: from tissue
In short: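 Compound inhibition of plasma kallikrein measured as PFR-AMC (100 μM) cleavage rate over 5 min at room temperature in 78% citrated human plasma activated with 10 nM FXIIa (Tris pH 7.5 buffer). IC50/IC90 from 4-parameter fit of rate versus inhibitor concentration.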

T1 sequence (P03952 391-638 limits assumed): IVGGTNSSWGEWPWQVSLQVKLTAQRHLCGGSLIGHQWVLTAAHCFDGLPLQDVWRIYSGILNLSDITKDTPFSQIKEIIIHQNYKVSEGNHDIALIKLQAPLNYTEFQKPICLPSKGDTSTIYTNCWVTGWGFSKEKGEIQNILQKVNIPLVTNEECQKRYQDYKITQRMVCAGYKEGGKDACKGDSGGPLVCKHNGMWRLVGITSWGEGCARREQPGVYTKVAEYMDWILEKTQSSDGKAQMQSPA
T1 sequence (P03952 20-390 partner limits assumed): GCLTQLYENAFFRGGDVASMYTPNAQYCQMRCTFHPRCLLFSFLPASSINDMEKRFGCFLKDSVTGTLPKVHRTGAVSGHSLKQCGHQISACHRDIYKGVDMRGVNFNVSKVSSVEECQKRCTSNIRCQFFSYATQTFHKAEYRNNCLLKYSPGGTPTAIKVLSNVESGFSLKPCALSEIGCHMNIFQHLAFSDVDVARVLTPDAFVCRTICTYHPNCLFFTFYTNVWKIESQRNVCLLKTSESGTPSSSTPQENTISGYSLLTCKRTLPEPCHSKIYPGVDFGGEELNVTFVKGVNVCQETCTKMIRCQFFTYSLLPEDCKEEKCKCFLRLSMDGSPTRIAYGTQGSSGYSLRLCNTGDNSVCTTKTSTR
Sequence of human activated kallikrein enzyme (P03952 391-638 limits assumed): as the sequence (P03952 391-638 limits assumed) above
Sequence of human activated kallikrein enzyme (P03952 20-390 partner limits assumed): as the sequence (P03952 20-390 partner limits assumed) above

| Structure (SMILES) | EC50 [1] [nM] | IC90 (plasma kallikrein) [nM] |
| --- | --- | --- |
| Cc1ccnc([C@@H]2[C@@H](C(=O)Nc3cc(NCc4cn5cc(C6CC6)cc(N6CC(=O)N(C)C6=O)c5n4)ncn3)C2(F)F)n1 (racemic) [Example 494, rac-(1S*,3S*)-N-(6-(((6-cyclopropyl-8-(3-methyl-2,4-dioxoimidazolidin-1-yl)imidazo[1,2-a]pyridin-2-yl)methyl)amino)pyrimidin-4-yl)-2,2-difluoro-3-(4-methylpyrimidin-2-yl)cyclopropane-1-carboxamide] | < 1 | < 400 |
| O=C(Nc1cc(NCc2cn3cc(C4CC4)cc(N4CCN(CCO)CC4)c3n2)ccn1)[C@H]1C[C@@H]1c1cccc(Cl)c1 [Example 603, (1S,2S)-2-(3-chlorophenyl)-N-(4-(((6-cyclopropyl-8-(4-(2-hydroxyethyl)piperazin-1-yl)imidazo[1,2-a]pyridin-2-yl)methyl)amino)pyridin-2-yl)cyclopropane-1-carboxamide] | < 1 | < 400 |
| O=C1CN(c2cc(C3CC3)cn3cc(CNc4cc(NC(=O)[C@H]5C[C@@H]5c5cc(Cl)ccn5)nc(O)n4)nc23)C(=O)N1 [Example 487, (1S,2S)-2-(4-chloropyridin-2-yl)-N-(6-(((6-cyclopropyl-8-(2,4-dioxoimidazolidin-1-yl)imidazo[1,2-a]pyridin-2-yl)methyl)amino)-2-hydroxypyrimidin-4-yl)cyclopropane-1-carboxamide] | < 1 | < 400 |
| Cc1ccnc([C@H]2C[C@@H]2C(=O)Nc2cc(N[C@H](C)c3cn4cc(C5CC5)cc(N5CC6(COC6)CC5=O)c4n3)nc(C)n2)n1 [Example I-27, (1S,2S)—N-(6-(((R)-1-(6-cyclopropyl-8-(7-oxo-2-oxa-6-azaspiro[3.4]octan-6-yl)imidazo[1,2-a]pyridin-2-yl)ethyl)amino)-2-methylpyrimidin-4-yl)-2-(4-methylpyrimidin-2-yl)cyclopropane-1-carboxamide] | < 1 | < 400 |
| O=C(Nc1cc(NCc2cn3cc(C4CC4)cc(N4CCN5CCCC5C4)c3n2)ncn1)[C@H]1C[C@@H]1c1cccc(Cl)c1 (stereo partly drawn) [Example I-200, (1S,2S)-2-(3-chlorophenyl)-N-(6-(((6-cyclopropyl-8-(hexahydropyrrolo[1,2-a]pyrazin-2(1H)-yl)imidazo[1,2-a]pyridin-2-yl)methyl)amino)pyrimidin-4-yl)cyclopropane-1-carboxamide] | < 1 | 400 to 1500 |
| CN1CC(O)(c2cc(C3CC3)cn3cc(CNc4cc(NC(=O)[C@H]5C[C@@H]5c5cccc(Cl)c5)ncn4)nc23)C1 [Example I-198, (1S,2S)-2-(3-chlorophenyl)-N-(6-(((6-cyclopropyl-8-(3-hydroxy-1-methylazetidin-3-yl)imidazo[1,2-a]pyridin-2-yl)methyl)amino)pyrimidin-4-yl)cyclopropane-1-carboxamide] | < 1 | < 400 |
| CN1CCN(c2cc(C3CC3)cn3cc(CNc4cc(NC(=O)[C@H]5C[C@@H]5c5cccc(Cl)c5)ncn4)nc23)C1=O [Example I-157, (1S,2S)-2-(3-chlorophenyl)-N-(6-(((6-cyclopropyl-8-(3-methyl-2-oxoimidazolidin-1-yl)imidazo[1,2-a]pyridin-2-yl)methyl)amino)pyrimidin-4-yl)cyclopropane-1-carboxamide] | < 1 | 1500 to 10000 |
| CN1CCN(C(=O)c2cc(C3CC3)cn3cc(CNc4cc(NC(=O)[C@H]5C[C@@H]5c5cccc(Cl)c5)ncn4)nc23)CC1 [Example 301, (1S,2S)-2-(3-chlorophenyl)-N-(6-(((6-cyclopropyl-8-(4-methylpiperazine-1-carbonyl)imidazo[1,2-a]pyridin-2-yl)methyl)amino)pyrimidin-4-yl)cyclopropane-1-carboxamide] | < 1 | 1500 to 10000 |
| Cc1ccnc([C@H]2C[C@@H]2C(=O)Nc2cc(NCc3cn4cc(C5CC5)ccc4n3)ncn2)n1 [Example 381, (1S,2S)-N-(6-(((6-cyclopropylimidazo[1,2-a]pyridin-2-yl)methyl)amino)pyrimidin-4-yl)-2-(4-methylpyrimidin-2-yl)cyclopropane-1-carboxamide] | < 1 | 10000 to 48000 |
